According to patent US8735414B2 (priority 2009, dated 2014):

Tests used:
[1] = test system: bicistronic HCV replicon (replicon RNA, GenBank Accession No. AJ242654); experiment: HCV Replicon Assay; type: cell-based; conditions: Hepatitis C virus, 72 h, read-out: Replicon IC50

| Structure (SMILES) | melting point | IC50 [1] |
| --- | --- | --- |
| CCCn1c(-c2ncc(S(=O)(=O)NC(CF)CF)cn2)c(C#N)c2ccc(OC(F)F)cc21 [compound 232, 2-[3-cyano-6-(difluoromethoxy)-1-propyl-1H-indol-2-yl]-N-(1,3-difluoropropan-2-yl)pyrimidine-5-sulfonamide] | 177 to 179 °C | < 500 nM |
| N#Cc1c(-c2ncc(S(=O)(=O)NC(CF)CF)cn2)n(C2CCCC2)c2cc(OC(F)F)ccc12 [compound 233, 2-[3-cyano-1-cyclopentyl-6-(difluoromethoxy)-1H-indol-2-yl]-N-(1,3-difluoropropan-2-yl)pyrimidine-5-sulfonamide] | 199 to 201 °C | < 500 nM |
| N#Cc1c(-c2ccc(S(=O)(=O)NC(CF)CF)cn2)n(C2CCCCC2)c2cc(F)ccc12 [compound 234, 6-(3-cyano-1-cyclohexyl-6-fluoro-1H-indol-2-yl)-N-(1,3-difluoropropan-2-yl)pyridine-3-sulfonamide] | 193 to 199 °C | < 500 nM |
| N#Cc1c(-c2ncc(S(=O)(=O)NC(CF)CF)cn2)n(C2CCCCC2)c2cc(F)ccc12 [compound 235, 2-(3-cyano-1-cyclohexyl-6-fluoro-1H-indol-2-yl)-N-(1,3-difluoropropan-2-yl)pyrimidine-5-sulfonamide] | 213 to 218 °C | < 500 nM |
| C[C@H](NS(=O)(=O)c1ccc(-c2c(C#N)c3ccc(C4CC4)cc3n2C2CCC2)nc1)C1CC1 [compound 236, 6-(3-cyano-1-cyclobutyl-6-cyclopropyl-1H-indol-2-yl)-N-[(1S)-1-cyclopropylethyl]pyridine-3-sulfonamide] | 170 to 176 °C | < 500 nM |
| Cc1ccc2c(C#N)c(-c3ccc(S(=O)(=O)N[C@@H](C)C4CC4)cn3)n(C3CCC3)c2c1 [compound 238, 6-(3-cyano-1-cyclobutyl-6-methyl-1H-indol-2-yl)-N-[(1S)-1-cyclopropylethyl]pyridine-3-sulfonamide] | 181 to 187 °C | < 500 nM |
| N#Cc1c(-c2ncc(S(=O)(=O)NC(CF)CF)cn2)n(C2CCCC2)c2ccc(F)cc12 [compound 240, 2-(3-cyano-1-cyclopentyl-5-fluoro-1H-indol-2-yl)-N-(1,3-difluoropropan-2-yl)pyrimidine-5-sulfonamide] | 201 to 206 °C | < 500 nM |
| Cc1ccc2c(C#N)c(-c3ncc(S(=O)(=O)NC(CF)CF)cn3)n(C3CCCCC3)c2c1 [compound 241, 2-(3-cyano-1-cyclohexyl-6-methyl-1H-indol-2-yl)-N-(1,3-difluoropropan-2-yl)pyrimidine-5-sulfonamide] | 225 to 230 °C | < 500 nM |
| CCn1c(-c2ncc(S(=O)(=O)NC(C)C)cn2)c(C#N)c2cc(OC(F)F)ccc21 [compound 242, 2-[3-cyano-5-(difluoromethoxy)-1-ethyl-1H-indol-2-yl]-N-(propan-2-yl)pyrimidine-5-sulfonamide] | 180 to 185 °C | 500 to 2000 nM |
| N#Cc1c(-c2ccc(S(=O)(=O)NC3CC(F)(F)C3)cn2)n(C2CCC2)c2cc(Cl)ccc12 [compound 244, 6-(6-chloro-3-cyano-1-cyclobutyl-1H-indol-2-yl)-N-(3,3-difluorocyclobutyl)pyridine-3-sulfonamide] | 135 to 138 °C | 2000 to 5000 nM |
| Cc1ccc2c(C#N)c(-c3ccc(S(=O)(=O)NC4CC(F)(F)C4)cn3)n(C3CCC3)c2c1 [compound 245, 6-(3-cyano-1-cyclobutyl-6-methyl-1H-indol-2-yl)-N-(3,3-difluorocyclobutyl)pyridine-3-sulfonamide] | 165 to 166 °C | < 500 nM |
| N#Cc1c(-c2ccc(S(=O)(=O)NC3CC(F)(F)C3)cn2)n(C2CCC2)c2cc(C3CC3)ccc12 [compound 247, 6-(3-cyano-1-cyclobutyl-6-cyclopropyl-1H-indol-2-yl)-N-(3,3-difluorocyclobutyl)pyridine-3-sulfonamide] | 176 to 178 °C | 500 to 2000 nM |
| Cc1ccc2c(C#N)c(-c3ccc(S(=O)(=O)NC(CF)CF)cn3)n(-c3ccccn3)c2c1 [compound 248, 6-[3-cyano-6-methyl-1-(pyridin-2-yl)-1H-indol-2-yl]-N-(1,3-difluoropropan-2-yl)pyridine-3-sulfonamide] | 159 to 162 °C | < 500 nM |
| N#Cc1c(-c2ccc(S(=O)(=O)NC(CF)CF)cn2)n(-c2ccccn2)c2cc(OC(F)F)ccc12 [compound 249, 6-[3-cyano-6-(difluoromethoxy)-1-(pyridin-2-yl)-1H-indol-2-yl]-N-(1,3-difluoropropan-2-yl)pyridine-3-sulfonamide] | 186 to 190 °C | < 500 nM |
| C[C@H](NS(=O)(=O)c1ccc(-c2c(C#N)c3cc(F)ccc3n2C2CCCCC2)nc1)C1CC1 [compound 250, 6-(3-cyano-1-cyclohexyl-5-fluoro-1H-indol-2-yl)-N-[(1S)-1-cyclopropylethyl]pyridine-3-sulfonamide] | 161 to 163 °C | < 500 nM |
| CC(C)NS(=O)(=O)c1cnc(-c2c(C#N)c3ccc(F)cc3n2C2CCCCC2)nc1 [compound 251, 2-(3-cyano-1-cyclohexyl-6-fluoro-1H-indol-2-yl)-N-(propan-2-yl)pyrimidine-5-sulfonamide] | 200 to 202 °C | 500 to 2000 nM |
| Cc1ccc2c(C#N)c(-c3ccc(S(=O)(=O)NC4(C(F)(F)F)CCC4)cn3)n(C3CCCC3)c2c1 [compound 253, 6-(3-cyano-1-cyclopentyl-6-methyl-1H-indol-2-yl)-N-[1-(trifluoromethyl)cyclobutyl]pyridine-3-sulfonamide] | 214 to 218 °C | < 500 nM |
| C[C@H](NS(=O)(=O)c1cnc(-c2c(C#N)c3ccc(C4CC4)cc3n2C2CCCC2)nc1)C1CC1 [compound 254, 2-(3-cyano-1-cyclopentyl-6-cyclopropyl-1H-indol-2-yl)-N-[(1S)-1-cyclopropylethyl]pyrimidine-5-sulfonamide] | 185 to 189 °C | 500 to 2000 nM |
| Cc1ccc2c(C#N)c(-c3ccc(S(=O)(=O)NC4(C(F)(F)F)CC4)cn3)n(CC3CC3)c2c1 [compound 255, 6-[3-cyano-1-(cyclopropylmethyl)-6-methyl-1H-indol-2-yl]-N-[1-(trifluoromethyl)cyclopropyl]pyridine-3-sulfonamide] | 191 to 195 °C | < 500 nM |
| Cc1ccc2c(C#N)c(-c3ccc(S(=O)(=O)NC4(C(F)(F)F)CC4)cn3)n(C3CCC3)c2c1 [compound 256, 6-(3-cyano-1-cyclobutyl-6-methyl-1H-indol-2-yl)-N-[1-(trifluoromethyl)cyclopropyl]pyridine-3-sulfonamide] | 189 to 194 °C | < 500 nM |
| CCc1ccc2c(c1)c(C#N)c(-c1ccc(S(=O)(=O)NC(CF)CF)cn1)n2C1CCC1 [compound 258, 6-(3-cyano-1-cyclobutyl-5-ethyl-1H-indol-2-yl)-N-(1,3-difluoropropan-2-yl)pyridine-3-sulfonamide] | 163 to 164 °C | < 500 nM |
| N#Cc1c(-c2ccc(S(=O)(=O)NC(CF)CF)cn2)n(-c2ccncc2)c2ccc(F)cc12 [compound 259, 6-[3-cyano-5-fluoro-1-(pyridin-4-yl)-1H-indol-2-yl]-N-(1,3-difluoropropan-2-yl)pyridine-3-sulfonamide] | 199 to 203 °C | < 500 nM |
| Cc1ccc2c(C#N)c(-c3ncc(S(=O)(=O)NC(CF)CF)cn3)n(-c3ccccc3)c2c1 [compound 260, 2-(3-cyano-6-methyl-1-phenyl-1H-indol-2-yl)-N-(1,3-difluoropropan-2-yl)pyrimidine-5-sulfonamide] | 169 to 171 °C | < 500 nM |
| C[C@@H](NS(=O)(=O)c1ccc(-c2c(C#N)c3cc(F)ccc3n2C2CCCCC2)nc1)C(F)(F)F [compound 261, 6-(3-cyano-1-cyclohexyl-5-fluoro-1H-indol-2-yl)-N-[(2R)-1,1,1-trifluoropropan-2-yl]pyridine-3-sulfonamide] | 208 to 210 °C | < 500 nM |
| C[C@H](NS(=O)(=O)c1ccc(-c2c(C#N)c3ccc(F)cc3n2C2CCCCC2)nc1)C1CC1 [compound 262, 6-(3-cyano-1-cyclohexyl-6-fluoro-1H-indol-2-yl)-N-[(1S)-1-cyclopropylethyl]pyridine-3-sulfonamide] | 161 to 162 °C | < 500 nM |
| C[C@H](NS(=O)(=O)c1ccc(-c2c(C#N)c3ccc(C4CCC4)cc3n2C2CCC2)nc1)C1CC1 [compound 263, 6-(3-cyano-1,6-dicyclobutyl-1H-indol-2-yl)-N-[(1S)-1-cyclopropylethyl]pyridine-3-sulfonamide] | 124 to 126 °C | < 500 nM |
| N#Cc1c(-c2ncc(S(=O)(=O)NC(CF)CF)cn2)n(C2CCC2)c2cc(C3CCC3)ccc12 [compound 264, 2-(3-cyano-1,6-dicyclobutyl-1H-indol-2-yl)-N-(1,3-difluoropropan-2-yl)pyrimidine-5-sulfonamide] | 184 to 188 °C | 500 to 2000 nM |
| CC(C)NS(=O)(=O)c1cnc(-c2c(C#N)c3ccc(C4CCC4)cc3n2C2CCC2)nc1 [compound 265, 2-(3-cyano-1,6-dicyclobutyl-1H-indol-2-yl)-N-(propan-2-yl)pyrimidine-5-sulfonamide] | 192 to 194 °C | 500 to 2000 nM |
| N#Cc1c(-c2ccc(S(=O)(=O)NC(CF)CF)cn2)n(C2CCC2)c2cc(CC(F)F)ccc12 [compound 267, 6-[3-cyano-1-cyclobutyl-6-(2,2-difluoroethyl)-1H-indol-2-yl]-N-(1,3-difluoropropan-2-yl)pyridine-3-sulfonamide] | 166 to 168 °C | < 500 nM |
| CC(C)(C)S(=O)(=O)Nc1ccc(-c2c(C#N)c3ccc(Oc4ncccn4)cc3n2C2CCC2)cn1 [compound 268, N-{5-[3-cyano-1-cyclobutyl-6-(pyrimidin-2-yloxy)-1H-indol-2-yl]pyridin-2-yl}-2-methylpropane-2-sulfonamide] | 275 to 277 °C | < 500 nM |
